The source of these data is patent EP4603105A1, “PHARMACEUTICAL COMPOSITION CONTAINING CYCLIC COMPOUND HAVING SELECTIVE KRAS INHIBITORY EFFECT AGAINST HRAS AND NRAS” (CHUGAI SEIYAKU KABUSHIKI KAISHA, priority 2022, dated 2024).

The structures appear in SMILES notation.

The target in test [1] is GDP-bound KRAS wild-type protein (Homo sapiens, UniProt P01116). The test can be described thus: Binding to KRAS by surface plasmon resonance (SPR), dissociation constant KD. The essentials:
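Recombinant RAS proteins bearing a biotinylated Avi tag and loaded with GDP served as the captured ligand, recaptured fresh every cycle. Binding responses were referenced to an uncoated surface and a buffer-only blank cycle. Dissociation constants were obtained by 1:1 model fitting at 30°C.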

The target in test [2] is GDP-bound NRAS wild-type protein (Homo sapiens, UniProt P01111). Kind of test: Binding to NRAS by surface plasmon resonance (SPR), KD and KD ratio to KRAS. The conditions noted are these: ratio of KD for GDP-bound NRAS wild-type protein to KD for KRAS. An outline of the steps:
(§1)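 Compound binding is evaluated by SPR single-cycle kinetics, with concentrations added intermittently from low to high for 75 s each. Target surfaces carry GDP-loaded biotinylated Avi-RAS at about 100–300 RU, regenerated after each cycle; temperature 30°C. A 1:1 binding model gives KD.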
Background: SPR reads the build-up and loss of mass on a sensor chip optically.

In test [3] the target is HRAS wild-type protein (Homo sapiens, UniProt P01112). Kind of test: Binding to HRAS by surface plasmon resonance (SPR), KD and KD ratio to KRAS. The note with it: ratio of KD for HRAS wild-type protein to KD for KRAS. The essentials: as §1
Test [4] concerns human lung cancer strain NCI-H441. The format is cell-based. The essentials: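 Proliferation was scored by […] measured after the reagent was added to cultures kept at 37°C in 5% carbon dioxide.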
The subject of test [5] is human gastric cancer strain SNU-1. The format is cell-based. The procedure: (§2) A test compound was dispensed into a U-bottom 384-well plate as 40 nL serially diluted dimethyl sulfoxide solutions using a liquid handler Echo (LABCYTE). As for human gastric cancer strain SNU-1 (ATCC), a cell suspension was prepared so as to have 250 cells/40 µL in an RPMI-1640 medium (Sigma) supplemented with 10% fetal bovine serum (Sigma), a 2.5 g/L D-(+)-glucose solution, 10 mmol/L HEPES, and 1 mmol/L sodium pyruvate. This cell suspension was dispensed in an amount of 40 µL per well into a plate containing the test compound, and cultured at 37°C in a 5% carbon dioxide gas incubator. Seven days later, 20 µL of CellTiter-Glo (registered trademark) (Promega) was added to each well and luminescence was measured.

In test [6] the test system is human pancreatic cancer strain KP4. Format: cell-based. The method, then: as §2, with “pancreatic” for “gastric”, “KP4 (Institute of Physical and Chemical Research),” for “SNU-1 (ATCC),”, “500” for “250”, “a DMEM/Ham's F-12” for “an RPMI-1640”, “(Nacalai Tesque)” for “(Sigma)”, “(Sigma).” for “(Sigma), a 2.5 g/L D-(+)-glucose solution, 10 mmol/L HEPES, and 1 mmol/L sodium pyruvate.”

Test [7] deals with human colorectal cancer strain GP2d. Format: cell-based. The procedure:
as §2, with “colorectal” for “gastric”, “GP2d (ECACC),” for “SNU-1 (ATCC),”, “500” for “250”, “a Dulbecco's modified Eagle” for “an RPMI-1640”, “medium” for “medium (Sigma)”, “(Sigma).” for “(Sigma), a 2.5 g/L D-(+)-glucose solution, 10 mmol/L HEPES, and 1 mmol/L sodium pyruvate.”

In test [8] the test system is human gastric cancer strain GSU. Format: cell-based. The method, then: as §2, with “GSU (Institute of Physical and Chemical Research),” for “SNU-1 (ATCC),”, “200” for “250”, “(Sigma).” for “(Sigma), a 2.5 g/L D-(+)-glucose solution, 10 mmol/L HEPES, and 1 mmol/L sodium pyruvate.”
The test system of test [9] is human ovarian cancer strain OV7. The format is cell-based. The procedure:
A test compound was dispensed into a U-bottom 384-well plate as 40 nL serially diluted dimethyl sulfoxide solutions using a liquid handler Echo (LABCYTE). As for human ovarian cancer strain OV7 (ECACC), a cell suspension was prepared so as to have 250 cells/40 µL in a DMEM/Ham's F-12 medium (Nacalai Tesque) supplemented with 5% fetal bovine serum (Sigma), 0.5 µg/mL hydrocortisone, and 10 µg/mL insulin. This cell suspension was dispensed in an amount of 40 µL per well into a plate containing the test compound, and cultured at 37°C in a 5% carbon dioxide gas incubator. Seven days later, 20 µL of CellTiter-Glo (registered trademark) (Promega) was added to each well and luminescence was measured.

Test [10] concerns human bladder cancer strain UM-UC-3. Format: cell-based. The procedure: as §2, with “human bladder” for “human gastric”, “strain UM-UC-3” for “strain SNU-1”, “an MEM” for “an RPMI-1640”, “medium (Nacalai Tesque)” for “medium (Sigma)”, “(Sigma), an MEM non-essential amino acids solution (100X),” for “(Sigma), a 2.5 g/L D-(+)-glucose solution, 10 mmol/L HEPES,”, “measured. […]” for “measured.”

Sequence of GDP-bound KRAS wild-type protein (P01116 1-188 isoform P01116-2): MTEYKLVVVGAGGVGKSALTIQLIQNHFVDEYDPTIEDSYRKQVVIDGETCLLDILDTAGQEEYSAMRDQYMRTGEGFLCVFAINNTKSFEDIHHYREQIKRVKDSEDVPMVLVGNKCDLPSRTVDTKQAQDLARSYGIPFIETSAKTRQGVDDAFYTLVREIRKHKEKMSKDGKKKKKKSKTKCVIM
Sequence of HRAS wild-type protein (P01112 whole entry): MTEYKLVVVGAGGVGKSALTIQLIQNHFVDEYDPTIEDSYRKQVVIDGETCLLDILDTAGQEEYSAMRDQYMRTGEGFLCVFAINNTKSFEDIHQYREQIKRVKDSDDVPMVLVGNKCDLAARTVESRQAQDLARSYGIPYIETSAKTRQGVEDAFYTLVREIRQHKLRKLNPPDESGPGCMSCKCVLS
Sequence of GDP-bound NRAS wild-type protein (P01111 whole entry): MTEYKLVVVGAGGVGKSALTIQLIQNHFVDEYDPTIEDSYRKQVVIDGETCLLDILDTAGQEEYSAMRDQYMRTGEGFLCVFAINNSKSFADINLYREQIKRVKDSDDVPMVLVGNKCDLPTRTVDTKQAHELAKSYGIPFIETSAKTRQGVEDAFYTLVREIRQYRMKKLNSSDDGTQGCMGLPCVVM

Consider `CCO[C@@H]1C[C@H]2C(=O)NC3(CC(C)(C)C3)C(=O)N(C)[C@@H](C3CCCC3)C(=O)N(C)[C@H](C(=O)N(C)C)CC(=O)N(C)[C@@H]([C@@H](C)OC)C(=O)N[C@@H]([C@@H](C)CC)C(=O)N(C)CC(=O)N(C)[C@H]3C/C=C\CCN(C3=O)[C@@H](Cc3ccc(C(F)(F)F)cc3)C(=O)N(C)CC(=O)N[C@@H](CCc3ccc(C(F)(F)F)c(Cl)c3)C(=O)N2C1` [PP3198, (2S,8S,12R,14S,20S,23S,27S,30S,36S,38Z)-8-[2-[3-chloro-4-(trifluoromethyl)phenyl]ethyl]-20-cyclopentyl-12-ethoxy-27-[(1R)-1-methoxyethyl]-N,N,3',3',4,19,22,26,32,35-decamethyl-30-[(1S)-1-methylpropyl]-3,6,9,15,18,21,25,28,31,34,42-undecaoxo-2-[[4-(trifluoromethyl)phenyl]methyl]spiro[1,4,7,10,16,19,22,26,29,32,35-undecazatricyclo[34.5.1.0^10,14]dotetracont-38-ene-17,1'-cyclobutane]-23-carboxamide], for which the Kd in test [1] (1:1 binding model) was determined as 0.04 nM. Also, in [2], the “NRAS /KRAS” value was “A (a compound having 10 or more and less than 20 is denoted as A)”. Further, in test [3], the “HRAS /KRAS” value was “A (a compound having 10 or more and less than 20 is denoted as A)”. Besides, the IC50 in test [4] was 4.4 nM; in test [5], 3.2 nM; in test [6] it was 4.7 nM; in test [7], 2.4 nM; in test [8] it was 0.4 nM; in test [9], 7.2 nM. In addition, the IC50 in [10] came out at 2.5 nM.
In turn, `C#CC[C@H]1C(=O)N[C@@H]([C@@H](C)CC)C(=O)N(C)CC(=O)N(C)[C@H]2C/C=C\CCN(C2=O)[C@@H](Cc2ccc(C(F)(F)F)cc2)C(=O)N(C)CC(=O)N[C@@H](CCc2ccc(C(F)(F)F)c(Cl)c2)C(=O)N2C[C@H](OCC)C[C@H]2C(=O)N(C)C2(CCC2)C(=O)N(C)[C@@H](C2CCCC2)C(=O)N(C)[C@H](C(=O)N(C)C)CC(=O)N1C` [PP3234, (2S,8S,12R,14S,20S,23S,27S,30S,36S,38Z)-8-[2-[3-chloro-4-(trifluoromethyl)phenyl]ethyl]-20-cyclopentyl-12-ethoxy-N,N,4,16,19,22,26,32,35-nonamethyl-30-[(1S)-1-methylpropyl]-3,6,9,15,18,21,25,28,31,34,42-undecaoxo-27-prop-2-ynyl-2-[[4-(trifluoromethyl)phenyl]methyl]spiro[1,4,7,10,16,19,22,26,29,32,35-undecazatricyclo[34.5.1.0^10,14]dotetracont-38-ene-17,1'-cyclobutane]-23-carboxamide] gave a Kd in test [1] (Single Cycle Kinetics) of 0.026 nM. Further, in [2], the “NRAS /KRAS” value was “A (a compound having 10 or more and less than 20 is denoted as A)”. Further, the “HRAS /KRAS” value in [3] was “B (a compound having 3 or more and less than 10 is denoted as B)”. For the same compound, the IC50 was found to be 1.6 nM in [4]; 2 nM in test [5]; 3.2 nM in test [6]; 1.1 nM in [7]; 0.4 nM in [8]; 2.2 nM in test [9]. Besides, half-maximal inhibition in test [10] (IC50) required 0.7 nM.
Consider `C#CC[C@H]1C(=O)N[C@@H]([C@@H](C)CC)C(=O)N(C)CC(=O)N(C)[C@H]2C/C=C\CCN(C2=O)[C@@H](Cc2ccc(C)cc2)C(=O)N(C)CC(=O)N[C@@H](CCc2cc(F)c(C(F)(F)F)c(F)c2)C(=O)N2C[C@H](OCC)C[C@H]2C(=O)N(C)C2(CCC2)C(=O)N(C)[C@@H](C2CCCC2)C(=O)N(C)[C@H](C(=O)N(C)C)CC(=O)N1C` [PP3238, (2S,8S,12R,14S,20S,23S,27S,30S,36S,38Z)-20-cyclopentyl-8-[2-[3,5-difluoro-4-(trifluoromethyl)phenyl]ethyl]-12-ethoxy-N,N,4,16,19,22,26,32,35-nonamethyl-30-[(1S)-1-methylpropyl]-3,6,9,15,18,21,25,28,31,34,42-undecaoxo-27-prop-2-ynyl-2-(p-tolylmethyl)spiro[1,4,7,10,16,19,22,26,29,32,35-undecazatricyclo[34.5.1.0^10,14]dotetracont-38-ene-17,1'-cyclobutane]-23-carboxamide], for which the Kd in test [1] (Single Cycle Kinetics) was 0.022 nM. Moreover, the “NRAS /KRAS” value in test [2] was “A (a compound having 10 or more and less than 20 is denoted as A)”. Besides, in [3], the “HRAS /KRAS” value was “A (a compound having 10 or more and less than 20 is denoted as A)”. Also, the IC50 in test [4] was 1.9 nM; in test [5], 2.1 nM; in test [6], 4.2 nM; in test [7], 1.5 nM; in test [8] it was 0.6 nM; in test [9], 2.1 nM. This compound also registered an IC50 in test [10] of 1.5 nM.
The compound `C#CC[C@H]1C(=O)N[C@@H]([C@@H](C)CC)C(=O)N2CCC[C@H]2C(=O)N(C)[C@H]2C/C=C\CCN(C2=O)[C@@H](Cc2ccc(C)cc2)C(=O)N(C)CC(=O)N[C@@H](CCc2ccc(C(F)(F)F)c(OC)c2)C(=O)N2C[C@H](OCC)C[C@H]2C(=O)N(C)C2(CCC2)C(=O)N(C)[C@@H](C2CCCC2)C(=O)N(C)[C@H](C(=O)N(C)C)CC(=O)N1C` [PP3255, (1S,4S,10S,13S,17S,20S,26S,28R,32S,38S,42Z)-20-cyclopentyl-28-ethoxy-32-[2-[3-methoxy-4-(trifluoromethyl)phenyl]ethyl]-N,N,2,14,18,21,24,36-octamethyl-10-[(1S)-1-methylpropyl]-3,9,12,15,19,22,25,31,34,37,45-undecaoxo-13-prop-2-ynyl-38-(p-tolylmethyl)spiro[2,8,11,14,18,21,24,30,33,36,39-undecazatetracyclo[37.5.1.0^4,8.0^26,30]pentatetracont-42-ene-23,1'-cyclobutane]-17-carboxamide] returned a Kd in test [1] (Single Cycle Kinetics) of 0.1 nM. Further, the “NRAS /KRAS” value in test [2] was “A (a compound having 10 or more and less than 20 is denoted as A)”. For the same compound, the “HRAS /KRAS” value in test [3] was “A (a compound having 10 or more and less than 20 is denoted as A)”. Besides, the IC50 was found to be 5.7 nM in test [4]; 6.6 nM in [5]; 9.3 nM in test [6]; 3.8 nM in [7]; 1.9 nM in [8]; 7.1 nM in [9]. For the same compound, the 50% inhibitory concentration (IC50) in [10] came out at 3.7 nM.

Broadly, the Kd is the equilibrium constant for the complex coming apart. A low value points to a tighter complex. In general, IC50 refers to the point on the concentration scale where inhibition reaches its midpoint. A higher IC50 goes with weaker potency.
